Patent EP0212404A1, “7-oxo-4-thia-1-azabicyclo [3.2.0] hept-2-ene derivatives” (HOECHST AKTIENGESELLSCHAFT, priority 1985, dated 1987)
Converted amounts (≈) assume the structure as drawn. Where two headings read alike, the source gives them in different places.

Legend:
Assay in all cases: agar dilution test (MIC)
Type in all cases: cell-based
Salm.typh. MZII = settings: Mueller Hinton agar, 16 to 18 hours at 37°C, read-out: Minimum Inhibitory Concentration (MIC)
Experimental: (§1) The antimicrobial activity was determined by measuring the Minimum Inhibitory Concentration (MIC). The MIC of the compounds was determined by a standard test, the "agar dilution test" according to Lorian (Antibiotics in Laboratory Medicine, Williams and Wilkins, Baltimore/London 1980) as follows:
(§2) A two-fold decreasing concentration series of each compound was prepared in Petri dishes containing 15 ml of Mueller Hinton agar (Difco). One Petri dish containing only the Mueller Hinton agar served as control for bacterial growth. Each Petri dish was inoculated with a multi-point inoculator (Denley), which transferred 0.6µl of a 1:100 diluted 18 hours culture of the appropriate test bacterium. After 16 to 18 hours of incubation at 37°C the Petri dishes were examined for growth of bacteria. The lowest concentration of the compound which causes complete inhibition of growth is taken as the MIC except that the growth of a single colony or a haze is not taken as evidence of qrowth.

E.coli DC2 = settings: Escherichia coli, Mueller Hinton agar, 16 to 18 hours at 37°C, read-out: Minimum Inhibitory Concentration (MIC)
Experimental: as §1, §2

Str.pyogenes 77A = settings: Streptococcus pyogenes, Mueller Hinton agar, 16 to 18 hours at 37°C, read-out: Minimum Inhibitory Concentration (MIC)
Experimental: as §1, §2

Kl.aerog. 1522E = settings: read-out: Minimum Inhibitory Concentration (MIC)
Experimental: as §1, §2

E.coli KN126 = settings: Escherichia coli, Mueller Hinton agar, 16 to 18 hours at 37°C, read-out: Minimum Inhibitory Concentration (MIC)
Experimental: as §1, §2

Staph.aureus 503 = settings: Staphylococcus aureus, Mueller Hinton agar, 16 to 18 hours at 37°C, read-out: Minimum Inhibitory Concentration (MIC)
Experimental: as §1, §2

Staph.aureus SG511 = settings: Staphylococcus aureus, Mueller Hinton agar, 16 to 18 hours at 37°C, read-out: Minimum Inhibitory Concentration (MIC)
Experimental: as §1, §2

Str.pyogenes 308A = settings: Streptococcus pyogenes, Mueller Hinton agar, 16 to 18 hours at 37°C, read-out: Minimum Inhibitory Concentration (MIC)
Experimental: as §1, §2

E.coli TEM = settings: Escherichia coli, read-out: Minimum Inhibitory Concentration (MIC)
Experimental: as §1, §2

E.coli DC0 = settings: Escherichia coli, Mueller Hinton agar, 16 to 18 hours at 37°C, read-out: Minimum Inhibitory Concentration (MIC)
Experimental: as §1, §2

Str.faecium D = settings: Enterococcus faecium, read-out: Minimum Inhibitory Concentration (MIC)
Experimental: as §1, §2

Staph.aureus 285 = settings: Staphylococcus aureus, Mueller Hinton agar, 16 to 18 hours at 37°C, read-out: Minimum Inhibitory Concentration (MIC)
Experimental: as §1, §2

Ent.cloacae P99 = settings: Enterobacter cloacae, Mueller Hinton agar, 16 to 18 hours at 37°C, read-out: Minimum Inhibitory Concentration (MIC)
Experimental: as §1, §2

E.coli 1507E = settings: Escherichia coli, read-out: Minimum Inhibitory Concentration (MIC)
Experimental: as §1, §2

Kl.aerog. 1082E = settings: Mueller Hinton agar, 16 to 18 hours at 37°C, read-out: Minimum Inhibitory Concentration (MIC)
Experimental: as §1, §2

Bac.subt. ATCC6633 = settings: Mueller Hinton agar, 16 to 18 hours at 37°C, read-out: Minimum Inhibitory Concentration (MIC)
Experimental: as §1, §2

E.coli 055 = settings: Escherichia coli, Mueller Hinton agar, 16 to 18 hours at 37°C, read-out: Minimum Inhibitory Concentration (MIC)
Experimental: as §1, §2

Ent.cloacae 1321E = settings: Enterobacter cloacae, read-out: Minimum Inhibitory Concentration (MIC)
Experimental: as §1, §2

[1] = Str.faecium D, Mueller Hinton agar, 16 to 18 hours at 37°C
[2] = Kl.aerog. 1522E, Mueller Hinton agar, 16 to 18 hours at 37°C
[3] = E.coli 1507E, Mueller Hinton agar, 16 to 18 hours at 37°C
[4] = Ent.cloacae 1321E, Mueller Hinton agar, 16 to 18 hours at 37°C

Row | Structure (SMILES) | MIC (Salm.typh. MZII) [µg/mL] | MIC (E.coli DC2) [µg/mL] | MIC (Str.pyogenes 77A) [µg/mL] | MIC (Kl.aerog. 1522E) [µg/mL] | MIC (E.coli KN126) [µg/mL] | MIC (Staph.aureus 503) [µg/mL] | MIC (Staph.aureus SG511) [µg/mL] | MIC (Str.pyogenes 308A) [µg/mL] | MIC (E.coli TEM) [µg/mL] | MIC (E.coli DC0) [µg/mL] | MIC (Str.faecium D; [1]) [µg/mL] | MIC (Staph.aureus 285) [µg/mL] | MIC (Ent.cloacae P99) [µg/mL] | MIC (E.coli 1507E; 1507E) [µg/mL] | MIC (Kl.aerog. 1082E) [µg/mL] | MIC (Bac.subt. ATCC6633) [µg/mL] | MIC (E.coli 055) [µg/mL] | MIC (Ent.cloacae 1321E; 1321E) [µg/mL] | MIC (Kl.aerog. 1522E; [2]) [µg/mL] | MIC (E.coli 1507E; [3]) [µg/mL] | other results
1 | COc1ccc(C2=C(C(=O)O)N3C(=O)[C@H]([C@@H](C)O)[C@H]3S2)cc1 [Example 4-OCH3] | 6.25 (≈ 19.4 µM) | 0.78 (≈ 2.43 µM) | < 0.05 | 12.5 (≈ 38.9 µM) | 12.5 (≈ 38.9 µM) | 0.19 (≈ 0.591 µM) | 0.1 (≈ 0.311 µM) | < 0.05 | 12.5 (≈ 38.9 µM) | 25 (≈ 77.8 µM) | 3.13 (≈ 9.74 µM) | 0.19 (≈ 0.591 µM) | 100 (≈ 311 µM) | 12.5 (≈ 38.9 µM) | 0.78 (≈ 2.43 µM) | 0.1 (≈ 0.311 µM) | 3.13 (≈ 9.74 µM) | 12.5 (≈ 38.9 µM) |  |  | 
2 | CSc1ccc(C2=C(C(=O)O)N3C(=O)[C@H]([C@@H](C)O)[C@H]3S2)cc1 [Example 4-SCH3] | 12.5 (≈ 37 µM) | 0.78 (≈ 2.31 µM) | < 0.05 |  | 12.5 (≈ 37 µM) | 0.19 (≈ 0.563 µM) |  | < 0.05 | 25 (≈ 74.1 µM) | 50 (≈ 148 µM) | 3.13 (≈ 9.28 µM) | 0.19 (≈ 0.563 µM) | 50 (≈ 148 µM) |  | 0.78 (≈ 2.31 µM) | 0.1 (≈ 0.296 µM) | 6.25 (≈ 18.5 µM) | 12.5 (≈ 37 µM) | 25 (≈ 74.1 µM) | 25 (≈ 74.1 µM) | 
3 | CC(O)C1C(=O)N2C(C(=O)O)=C(c3ccc(C(N)=O)cc3)SC12 (centres unmarked) [Example 4-CONH2, 3-(4-aminocarbonylphenyl)-6-(1-hydroxyethyl)-7-oxo-4-thia-1-azabicyclo[3.2.0]hept-2-ene 2-carboxylic acid] |  | 0.39 (≈ 1.17 µM) | 0.013 (≈ 0.0389 µM) |  | 0.39 (≈ 1.17 µM) | 0.1 (≈ 0.299 µM) | 0.05 (≈ 0.15 µM) | 0.013 (≈ 0.0389 µM) | 0.39 (≈ 1.17 µM) | 0.78 (≈ 2.33 µM) | 1.56 (≈ 4.67 µM) | 0.1 (≈ 0.299 µM) | 6.25 (≈ 18.7 µM) |  | 0.39 (≈ 1.17 µM) | 0.05 (≈ 0.15 µM) | 0.19 (≈ 0.568 µM) |  | 0.39 (≈ 1.17 µM) | 0.39 (≈ 1.17 µM) | MIC (Ent.cloacae 1321E; [4]): 0.39 µg/mL (≈ 1.17 µM)
4 | CSc1cccc(C2=C(C(=O)O)N3C(=O)[C@H]([C@@H](C)O)[C@H]3S2)c1 [Example 3-SCH3] |  | 0.39 (≈ 1.16 µM) | < 0.05 | 6.25 (≈ 18.5 µM) | 6.25 (≈ 18.5 µM) | 0.19 (≈ 0.563 µM) | 0.1 (≈ 0.296 µM) | < 0.05 | 6.25 (≈ 18.5 µM) | 12.5 (≈ 37 µM) | 1.56 (≈ 4.62 µM) | 0.19 (≈ 0.563 µM) | 50 (≈ 148 µM) | 6.25 (≈ 18.5 µM) | 0.39 (≈ 1.16 µM) | 0.05 (≈ 0.148 µM) | 3.13 (≈ 9.28 µM) | 6.25 (≈ 18.5 µM) |  |  | 
5 | C[C@@H](O)[C@H]1C(=O)N2C(C(=O)O)=C(c3cccc(NC=O)c3)S[C@H]12 [Example 3-NHCHO, 3-(3-formylaminophenyl)-6-(1-hydroxyethyl)-7-oxo-4-thia-l-azabicyclo[3.2.0]hept-2-ene 2-carboxylic acid] |  | 0.39 (≈ 1.17 µM) | < 0.025 |  | 0.39 (≈ 1.17 µM) | 0.19 (≈ 0.568 µM) | 0.1 (≈ 0.299 µM) | < 0.025 | 0.78 (≈ 2.33 µM) | 1.56 (≈ 4.67 µM) | 1.56 (≈ 4.67 µM) | 0.19 (≈ 0.568 µM) | 12.5 (≈ 37.4 µM) |  | 0.39 (≈ 1.17 µM) | 0.1 (≈ 0.299 µM) | 0.39 (≈ 1.17 µM) |  | 0.39 (≈ 1.17 µM) | 0.78 (≈ 2.33 µM) | MIC (Ent.cloacae 1321E; [4]): 0.39 µg/mL (≈ 1.17 µM)
6 | C[C@@H](O)[C@H]1C(=O)N2C(C(=O)O)=C(c3ccc(F)cc3)S[C@H]12 [Example 4-F] | 3.13 (≈ 10.1 µM) | 1.56 (≈ 5.04 µM) | < 0.05 |  | 6.25 (≈ 20.2 µM) | 0.19 (≈ 0.614 µM) | 0.19 (≈ 0.614 µM) | < 0.05 | 6.25 (≈ 20.2 µM) | 25 (≈ 80.8 µM) |  | 0.19 (≈ 0.614 µM) | 25 (≈ 80.8 µM) | 6.25 (≈ 20.2 µM) | 1.56 (≈ 5.04 µM) | 0.1 (≈ 0.323 µM) | 1.56 (≈ 5.04 µM) | 3.13 (≈ 10.1 µM) | 12.5 (≈ 40.4 µM) |  | MIC (Str.faecium D): 3.13 µg/mL (≈ 10.1 µM)
7 | C[C@@H](O)[C@H]1C(=O)N2C(C(=O)O)=C(c3cccc(C(N)=O)c3)S[C@H]12 [Example 3-CONH2, 5R,3-(3-aminocarbonylphenyl)-6S-(1R-hydroxyethyl)-7-oxo-4-thia-l-azabicyclo[3.2.0]hept-2-ene-2-carboxylate] |  | 0.1 (≈ 0.299 µM) | 0.013 (≈ 0.0389 µM) |  | 0.1 (≈ 0.299 µM) | 0.1 (≈ 0.299 µM) | 0.05 (≈ 0.15 µM) | 0.006 (≈ 0.0179 µM) | 0.19 (≈ 0.568 µM) | 0.39 (≈ 1.17 µM) | 1.56 (≈ 4.67 µM) | 0.1 (≈ 0.299 µM) | 1.56 (≈ 4.67 µM) |  | 0.1 (≈ 0.299 µM) | 0.05 (≈ 0.15 µM) | 0.1 (≈ 0.299 µM) |  | 0.19 (≈ 0.568 µM) | 0.19 (≈ 0.568 µM) | MIC (Ent.cloacae 1321E; [4]): 0.1 µg/mL (≈ 0.299 µM)
8 | C[C@@H](O)[C@H]1C(=O)N2C(C(=O)O)=C(c3ccc(Cl)cc3)S[C@H]12 [Example 4-Cl] | 6.25 (≈ 19.2 µM) | 0.39 (≈ 1.2 µM) | < 0.05 | 12.5 (≈ 38.4 µM) | 12.5 (≈ 38.4 µM) | 0.1 (≈ 0.307 µM) | 0.05 (≈ 0.153 µM) | < 0.05 | 12.5 (≈ 38.4 µM) | 25 (≈ 76.7 µM) | 1.56 (≈ 4.79 µM) | 0.1 (≈ 0.307 µM) | 50 (≈ 153 µM) | 12.5 (≈ 38.4 µM) | 0.78 (≈ 2.39 µM) | 0.05 (≈ 0.153 µM) | 3.13 (≈ 9.61 µM) | 6.25 (≈ 19.2 µM) |  |  | 
9 | C[C@@H](O)[C@H]1C(=O)N2C(C(=O)O)=C(c3ccccc3)S[C@H]12 [H] |  | 0.39 (≈ 1.34 µM) | < 0.05 | 1.56 (≈ 5.35 µM) | 3.12 (≈ 10.7 µM) | 0.1 (≈ 0.343 µM) | 0.1 (≈ 0.343 µM) | < 0.05 | 1.56 (≈ 5.35 µM) | 3.12 (≈ 10.7 µM) |  | 0.19 (≈ 0.652 µM) | 12.5 (≈ 42.9 µM) | 1.56 (≈ 5.35 µM) | 0.78 (≈ 2.68 µM) | 0.1 (≈ 0.343 µM) | 0.78 (≈ 2.68 µM) | 1.56 (≈ 5.35 µM) |  |  | MIC (Str.faecium D): 1.56 µg/mL (≈ 5.35 µM)
10 | C[C@@H](O)[C@H]1C(=O)N2C(C(=O)O)=C(c3ccc(NC=O)cc3)S[C@H]12 [Example 4-NHCHO] |  | 0.19 (≈ 0.568 µM) | < 0.013 |  | 0.39 (≈ 1.17 µM) | 0.1 (≈ 0.299 µM) | 0.05 (≈ 0.15 µM) | < 0.013 | 0.39 (≈ 1.17 µM) | 0.78 (≈ 2.33 µM) | 0.78 (≈ 2.33 µM) | 0.1 (≈ 0.299 µM) | 6.25 (≈ 18.7 µM) |  | 0.19 (≈ 0.568 µM) | 0.025 (≈ 0.0748 µM) | 0.19 (≈ 0.568 µM) |  | 0.39 (≈ 1.17 µM) | 0.39 (≈ 1.17 µM) | MIC (Ent.cloacae 1321E; [4]): 0.39 µg/mL (≈ 1.17 µM)
